This note sets out measurements from ChEMBL document CHEMBL3992507, “Design, synthesis and evaluation of 4-aminoquinoline-purine hybrids as potential antiplasmodial agents” (Eur J Med Chem, 2017).

Active and inactive are the calls of the source. No cut-off for these calls is given here.

The IC50 is the concentration at which inhibition is half-maximal.

The nature of series [1]: Selectivity index, ratio of IC50 for African green monkey Vero cells to IC50 for chloroquine-sensitive Plasmodium falciparum D6 infected in human RBC. It is filed as toxicity. Particulars: read-out: Ratio IC50.
Series [2] relates to Plasmodium falciparum. Nature of the series: Antiplasmodial activity against chloroquine-sensitive Plasmodium falciparum D6 infected in human RBC assessed as decrease in parasite viability after 72 hrs by LDH assay. It is filed as functional. The following applies: D6, 72 h.
For series [3], the system named is Plasmodium falciparum. Description: Antiplasmodial activity against chloroquine-resistant Plasmodium falciparum W2 infected in human RBC assessed as decrease in parasite viability after 72 hrs by LDH assay. In kind it is functional. Particulars: W2, 72 h.
The test system of the next series is Vero. Description: Cytotoxicity against African green monkey Vero cells after 48 hrs by neutral red uptake assay. It is filed as cell-based. Particulars: Chlorocebus sabaeus.
Series [4] is described as follows: Selectivity index, ratio of IC50 for African green monkey Vero cells to IC50 for chloroquine-resistant Plasmodium falciparum W2 infected in human RBC. In kind it is toxicity. The following applies: read-out: Ratio IC50.
Series [5] has as its system Plasmodium falciparum. Description: Potency index, ratio of chloroquine IC50 to compound IC50 for chloroquine-resistant Plasmodium falciparum W2. It is filed as functional.
Series [6] has as its system Heme. Nature of the series: Binding affinity to monomeric heme (unknown origin) assessed as 1:1 stoichiometry for heme-compound complex at 10 uM at pH 5.6 and 7.4 by Job's plot analysis.
In series [7] the test system is Heme. Description: Binding affinity to monomeric heme (unknown origin) assessed as decrease in intensity of soret band at 402 nm at pH 5.6 and 7.4 by spectrophotometric titration method.
A short description of series [8]: Binding affinity to dimeric heme (unknown origin) assessed as change in absorbance band intensity at 362 nm at 10 uM at pH 5.6 by spectrophotometric titration method.

Turning to `Clc1ccc2c(NCCn3cnc4c(N5CCCC5)nc(Cl)nc43)ccnc2c1`, the results for the selectivity ratio in series [1] and in [4] were greater than 25 and greater than 11.3, respectively. The IC50 in the series on Plasmodium falciparum [2] is 445 nM; in the series on Plasmodium falciparum [3] it was 984 nM; with Vero it was greater than 11100 nM.

`Clc1ccc2c(NCCCn3cnc4c(N5CCSCC5)nc(Cl)nc43)ccnc2c1`: the selectivity ratio in [1] was greater than 22.6; in series [4], greater than 5.6. Moreover, the IC50 in the series on Plasmodium falciparum [2] is 446 nM; in the series on Plasmodium falciparum [3] it was 1800 nM; with Vero it was greater than 10100 nM.

In the case of `Clc1ccc2c(NCCCn3cnc4c(N5CCN(c6ccccc6)CC5)nc(Cl)nc43)ccnc2c1`, the selectivity ratio in [1] was greater than 47.6; in series [4], greater than 17.7. Moreover, the IC50 in the series on Plasmodium falciparum [2] is 187 nM; in the series on Plasmodium falciparum [3] it was 504 nM; with Vero, greater than 8900 nM.

In the case of `Clc1ccc2c(NCCCn3cnc4c(N5CCCCC5)nc(Cl)nc43)ccnc2c1`, the selectivity ratio in series [1] was greater than 3.1; in series [4], greater than 2.8. Further, the 50% inhibitory concentration (IC50) with Plasmodium falciparum [2] is 3330 nM; in the series with Plasmodium falciparum [3], 3760 nM; in the series on Vero, greater than 10400 nM.

Consider `Clc1ccc2c(NCCn3cnc4c(N5CCCCCC5)nc(Cl)nc43)ccnc2c1`, for which the selectivity ratio in series [1] is greater than 24.9; in series [4] it was greater than 14.3. The concentration for half-maximal inhibition (IC50) in the series on Plasmodium falciparum [2] is 419 nM; in the series with Plasmodium falciparum [3], 729 nM; in the series on Vero it was greater than 10400 nM.

On to `CCN1CCN(c2nc(Cl)nc3c2ncn3CCCNc2ccnc3cc(Cl)ccc23)CC1`, for which the selectivity ratio is greater than 101 in series [1] and greater than 49.5 in [4]. The IC50 is 97 nM in the series with Plasmodium falciparum [2], 198 nM in the series on Plasmodium falciparum [3] and greater than 9830 nM in the series on Vero.

For `CCN(CC)CCCC(C)Nc1ccnc2cc(Cl)ccc12` (configuration not stated) [CHLOROQUINE], the IC50 with Vero is greater than 14900 nM.

`Clc1ccc2c(NCCCn3cnc4c(N5CCCC5)nc(Cl)nc43)ccnc2c1`: the values for the selectivity ratio in [1] and in [4] were greater than 10 and greater than 6.1, respectively. The IC50 with Plasmodium falciparum [2] is 1080 nM; in the series with Plasmodium falciparum [3], 1760 nM; in the series on Vero, greater than 10800 nM.

Turning to `CN1CCN(c2nc(Cl)nc3c2ncn3CCCNc2ccnc3cc(Cl)ccc23)CC1`, the selectivity ratio in series [1] was greater than 145; in series [4], greater than 54.5. Besides, the values for the concentration for half-maximal inhibition (IC50) with Plasmodium falciparum [2], in the series with Plasmodium falciparum [3] and with Vero were 69 nM, 185 nM and greater than 10100 nM, respectively.

Consider `Clc1ccc2c(NCCn3cnc4c(N5CCOCC5)nc(Cl)nc43)ccnc2c1`, for which the selectivity ratio is greater than 53.4 in [1] and greater than 47.4 in series [4]. The figures for the IC50 with Plasmodium falciparum [2], in the series on Plasmodium falciparum [3] and with Vero were 201 nM, 226 nM and greater than 10700 nM, respectively.

Regarding `Clc1ccc2c(NCCCn3cnc4c(N5CCCCCC5)nc(Cl)nc43)ccnc2c1`, the figures for the selectivity ratio in [1] and in [4] were greater than 8.3 and greater than 4.3, respectively. The IC50 was 1230 nM with Plasmodium falciparum [2], 2380 nM with Plasmodium falciparum [3] and greater than 10100 nM with Vero.

On to `Clc1ccc2c(NCCn3cnc4c(N5CCN(c6ccccc6)CC5)nc(Cl)nc43)ccnc2c1`, for which the selectivity ratio in series [1] was found to be 26.2; in [4] it was 9.4. Also, the IC50 in the series with Plasmodium falciparum [2] turned out to be 154 nM; in the series on Plasmodium falciparum [3] it was 428 nM; with Vero, 4040 nM.

For `CN(C)c1nc(Cl)nc2c1ncn2CCNc1ccnc2cc(Cl)ccc12`, the selectivity ratio in series [1] is greater than 46.6; in series [4] it was greater than 32.8. The figures for the IC50 in the series on Plasmodium falciparum [2], with Plasmodium falciparum [3] and in the series with Vero were 254 nM, 361 nM and greater than 11900 nM, respectively.

Regarding `Clc1ccc2c(NCCCn3cnc4c(N5CCOCC5)nc(Cl)nc43)ccnc2c1`, the selectivity ratio was greater than 12.5 in series [1] and greater than 9.1 in [4]. Also, the IC50 was 833 nM in the series with Plasmodium falciparum [2], 1150 nM in the series with Plasmodium falciparum [3] and greater than 10400 nM in the series on Vero.

For the compound `Clc1ccc2c(NCCn3cnc4c(N5CCSCC5)nc(Cl)nc43)ccnc2c1`, the selectivity ratio in series [1] worked out at 19.5; in series [4], 9.6. In addition, the concentration for half-maximal inhibition (IC50) in the series on Plasmodium falciparum [2] worked out at 292 nM; with Plasmodium falciparum [3] it was 590 nM; in the series with Vero, 5680 nM.

For the compound `CCN(CC)c1nc(Cl)nc2c1ncn2CCCNc1ccnc2cc(Cl)ccc12`, the figures for the selectivity ratio in series [1] and in series [4] were greater than 19.3 and greater than 10.9, respectively. Also, the IC50 in the series on Plasmodium falciparum [2] was 556 nM; in the series with Plasmodium falciparum [3], 983 nM; in the series with Vero, greater than 10700 nM.

In the case of `CN1CCN(c2nc(Cl)nc3c2ncn3CCNc2ccnc3cc(Cl)ccc23)CC1`, the selectivity ratio in series [1] is greater than 124; in series [4], greater than 85.4. In addition, the half-maximal inhibitory concentration (IC50) in the series with Plasmodium falciparum [2] is 84 nM; in the series on Plasmodium falciparum [3] it was 122 nM; with Vero, greater than 10400 nM.

Consider `C[C@@H]1CC[C@H]2[C@@H](C)C(=O)O[C@@H]3O[C@@]4(C)CC[C@@H]1[C@]32OO4` [ARTEMISININ], for which the results for the IC50 in the series on Plasmodium falciparum [2] and with Vero were 25 nM and greater than 16900 nM, respectively.

For the compound `CCN1CCN(c2nc(Cl)nc3c2ncn3CCNc2ccnc3cc(Cl)ccc23)CC1`, the selectivity ratio was greater than 164 in series [1] and greater than 125 in series [4]. Besides, the figures for the half-inhibitory concentration (IC50) in the series with Plasmodium falciparum [2], with Plasmodium falciparum [3] and with Vero were 61 nM, 80 nM and greater than 10100 nM, respectively. For the same compound, the “Ratio IC50” value with Plasmodium falciparum [5] is 6. Besides, the outcome (with Heme [6]; in the series with Heme [7]; in [8]) was Active.

On to `CN(C)c1nc(Cl)nc2c1ncn2CCCNc1ccnc2cc(Cl)ccc12`, for which the selectivity ratio is greater than 45 in series [1] and greater than 10.5 in series [4]. Moreover, the IC50 was 254 nM in the series on Plasmodium falciparum [2], 1090 nM in the series on Plasmodium falciparum [3] and greater than 11500 nM with Vero.

Turning to `Clc1ccc2c(NCCn3cnc4c(N5CCCCC5)nc(Cl)nc43)ccnc2c1`, the results for the selectivity ratio in [1] and in series [4] were greater than 31.1 and greater than 4.4, respectively. Moreover, the IC50 was 347 nM in the series on Plasmodium falciparum [2], 2450 nM in the series with Plasmodium falciparum [3] and greater than 10800 nM in the series on Vero.

`CCN(CC)c1nc(Cl)nc2c1ncn2CCNc1ccnc2cc(Cl)ccc12`: the values for the selectivity ratio in [1] and in series [4] were greater than 2.4 and greater than 1.6, respectively. Besides, the IC50 in the series on Plasmodium falciparum [2] was 4650 nM; in the series with Plasmodium falciparum [3], 6760 nM; in the series on Vero, greater than 11100 nM.
